Source: patent US10781236B2, “Bacteriocin composition and method” (priority 2015, dated 2020)

Assays:
[1] = test system: L. curvatus LMGT 2715; experiment: Relative MIC, inhibitory spectrum; assay type: cell-based, Lactobacillus curvatus; settings: relative to L. lactis IL 1403 = 1
[2] = test system: S. salivarius; experiment: Antimicrobial activity against problematic bacteria; assay type: cell-based, Streptococcus salivarius; settings: clinical sources
Procedure: (§1) To screen for bacteriocin producers with broad inhibition spectra (BIS), Lactococcus lactis, Lactobacillus sakei, Lactobacillus plantarum, Listeria innocua, and Staphylococcus aureus from the food and dairy environment were used as indicators in the first round of screening. The antimicrobial screening was performed using the agar diffusion bioassay as previously described (Holo et al., 1991, J. Bacteriol., 173, p 3879-3887). Briefly, indicator cells from overnight cultures were diluted 100-fold in 5 mL of BHI soft agar and plated out as a lawn on BHI agar plates. Potential bacteriocin producers at volumes of 3 μL were spotted on the indicator lawn and then incubated at appropriate temperatures for 24 h for cell growth and cell inhibition. Inhibition was detected as clear zones around the spotted cells.
(§2) As the antimicrobial activity of garvicin KS is relatively broad, we explored further its potential to kill a larger panel of important pathogens. The list contained 147 problematic or potentially problematic bacteria of species belonging to Listeria, Staphylococcus, Streptococcus and Enterococcus, isolated from food and clinical sources. In this assay, we compared the antimicrobial activity of garvicin KS with that of garvicin ML and nisin, the last one being known as a broad inhibition-spectrum bacteriocin (AIKhatib et al., 2014, PLOS One 9:e102246 doi:10.1371/joumal.pone.0102246). […]

[3] = test system: Strep. Thermophylus; experiment: as above; assay type: cell-based, Streptococcus thermophylus; settings: food sources
Procedure: as §1, §2

[4] = test system: L. innocua; experiment: as above; assay type: cell-based, Listeria innocua; settings: food sources
Procedure: as §1, §2

[5] = test system: 53 strains of different genera in the Firmicutes family; experiment: Inhibitory spectrum, whole panel of Table 3; assay type: cell-based; settings: 53 strains of Table 3
Description: A more extended comparison between the bacteriocin activity of L. garvieae KS 1546 (termed garvicin KS) and L. garvieae DCC 43 (garvicin ML producer) can also be seen in Table 3.

[6] = test system: L. plantarum LMGT 2352; experiment: Relative MIC, inhibitory spectrum; assay type: cell-based, Lactobacillus plantarum; settings: relative to L. lactis IL 1403 = 1
[7] = test system: L. curvatus LMGT 2355; experiment: Relative MIC, inhibitory spectrum; assay type: cell-based, Lactobacillus curvatus; settings: relative to L. lactis IL 1403 = 1
[8] = test system: S. pneumonia; experiment: Antimicrobial activity against problematic bacteria; assay type: cell-based, Streptococcus pneumonia
Procedure: as §1, §2

[9] = test system: C. tyrobutyricum LMGT 2524; experiment: Relative MIC, inhibitory spectrum; assay type: cell-based, Clostridium tyrobutyricum; settings: relative to L. lactis IL 1403 = 1
[10] = test system: Enterococcus avium LMGT 3465; experiment: Relative MIC, inhibitory spectrum; assay type: cell-based; settings: relative to L. lactis IL 1403 = 1
[11] = test system: L. Sakei LMGT 2380; experiment: Relative MIC, inhibitory spectrum; assay type: cell-based, Lactobacillus sakei; settings: relative to L. lactis IL 1403 = 1
[12] = test system: L. lactis LMGT 2130; experiment: Relative MIC, inhibitory spectrum; assay type: cell-based, Lactococcus lactis; settings: relative to L. lactis IL 1403 = 1
[13] = test system: L. lactis IL1403; experiment: Relative MIC, inhibitory spectrum; assay type: cell-based, Lactococcus lactis; settings: the reference indicator, referred to as 1
[14] = test system: L. lactis LMGT 2081; experiment: Relative MIC, inhibitory spectrum; assay type: cell-based, Lactococcus lactis; settings: relative to L. lactis IL 1403 = 1
[15] = test system: L. seelingeri; experiment: Antimicrobial activity against problematic bacteria; assay type: cell-based, Listeria seelingeri; settings: food sources
Procedure: as §1, §2

[16] = test system: L. ivanovii LMGT 2813; experiment: Relative MIC, inhibitory spectrum; assay type: cell-based, Listeria ivanovii; settings: relative to L. lactis IL 1403 = 1
[17] = test system: L. Sakei LMGT 2361; experiment: Relative MIC, inhibitory spectrum; assay type: cell-based, Lactobacillus sakei; settings: relative to L. lactis IL 1403 = 1
[18] = test system: E. faecium LMGT 2763; experiment: Relative MIC, inhibitory spectrum; assay type: cell-based, Enterococcus faecium; settings: relative to L. lactis IL 1403 = 1
[19] = test system: E. faecalis; experiment: Antimicrobial activity against problematic bacteria; assay type: cell-based, Enterococcus faecalis
Procedure: as §1, §2

[20] = test system: E. faecalis LMGT 2333; experiment: Relative MIC, inhibitory spectrum; assay type: cell-based, Enterococcus faecalis; settings: relative to L. lactis IL 1403 = 1
[21] = test system: L. curvatus LMGT 2371; experiment: Relative MIC, inhibitory spectrum; assay type: cell-based, Lactobacillus curvatus; settings: relative to L. lactis IL 1403 = 1
[22] = test system: E. faecium LMGT 2783; experiment: Relative MIC, inhibitory spectrum; assay type: cell-based, Enterococcus faecium; settings: relative to L. lactis IL 1403 = 1
[23] = test system: Listeria innocua LMGT 2710; experiment: Relative MIC, inhibitory spectrum; assay type: cell-based; settings: relative to L. lactis IL 1403 = 1
[24] = test system: E. faecium LMGT 2876; experiment: Relative MIC, inhibitory spectrum; assay type: cell-based, Enterococcus faecium; settings: relative to L. lactis IL 1403 = 1
[25] = test system: Leuconostoc gelidium LMGT 2386; experiment: Relative MIC, inhibitory spectrum; assay type: cell-based; settings: relative to L. lactis IL 1403 = 1
[26] = test system: S. agalactia; experiment: Antimicrobial activity against problematic bacteria; assay type: cell-based, Streptococcus agalactia; settings: clinical sources
Procedure: as §1, §2

[27] = test system: L. plantarum LMGT 2379; experiment: Relative MIC, inhibitory spectrum; assay type: cell-based, Lactobacillus plantarum; settings: relative to L. lactis IL 1403 = 1
[28] = test system: Lactobacillus curvatus LMGT 2353; experiment: Relative MIC, inhibitory spectrum; assay type: cell-based; settings: relative to L. lactis IL 1403 = 1
[29] = test system: Pediococcus acidilactici LMGT 2002; experiment: Relative MIC, inhibitory spectrum; assay type: cell-based; settings: relative to L. lactis IL 1403 = 1
[30] = test system: L. lactis LMGT 3419; experiment: Relative MIC, inhibitory spectrum; assay type: cell-based, Lactococcus lactis; settings: relative to L. lactis IL 1403 = 1
[31] = test system: L. lactis LMGT 2705; experiment: Relative MIC, inhibitory spectrum; assay type: cell-based, Lactococcus lactis; settings: relative to L. lactis IL 1403 = 1
[32] = test system: L. Sakei LMGT 2799; experiment: Relative MIC, inhibitory spectrum; assay type: cell-based, Lactobacillus sakei; settings: relative to L. lactis IL 1403 = 1
[33] = test system: Bacillus cereus LMGT 2805; experiment: Relative MIC, inhibitory spectrum; assay type: cell-based; settings: relative to L. lactis IL 1403 = 1
[34] = test system: P. pentosaceus LMGT 2366; experiment: Relative MIC, inhibitory spectrum; assay type: cell-based, Pediococcus pentosaceus; settings: relative to L. lactis IL 1403 = 1
[35] = test system: S. aureus LMGT 3265; experiment: Relative MIC, inhibitory spectrum; assay type: cell-based, Staphylococcus aureus; settings: relative to L. lactis IL 1403 = 1

**Q.** Which results are given for garvicin ML?
**A.** Relative MIC value [1]: 32; number of sensitive strains / number of strains tested [2]: 1/1; number of sensitive strains / number of strains tested [3]: 8/8; number of sensitive strains / number of strains tested [4]: 1/6; number of sensitive strains (n) among 53 strains [5]: 39; sensitive portion of 53 strains [5]: about 74%; Relative MIC value [6]: 16; Relative MIC value [7]: 2-4; number of sensitive strains / number of strains tested ([8]; clinical sources): 1/1; number of sensitive strains / number of strains tested ([8]; food sources): 1/1; Relative MIC value [9]: 32-64; Relative MIC value [10]: ≤0.25; Relative MIC value [11]: 32; Relative MIC value [12]: 8; Relative MIC value [13]: 1; Relative MIC value [14]: ≤0.25; number of sensitive strains / number of strains tested [15]: 0/1; Relative MIC value [16]: 32; Relative MIC value [17]: 32; Relative MIC value [18]: 32-64; number of sensitive strains / number of strains tested ([19]; clinical sources): 0/2; number of sensitive strains / number of strains tested ([19]; food sources): 18/40; Relative MIC value [20]: 64-128; Relative MIC value [21]: 32; Relative MIC value [22]: 64; Relative MIC value [23]: 32; Relative MIC value [24]: 64-128; Relative MIC value [25]: 32-64; number of sensitive strains / number of strains tested [26]: 1/1; Relative MIC value [27]: 32; Relative MIC value [28]: 16; Relative MIC value [29]: 32; Relative MIC value [30]: ≤0.25; Relative MIC value [31]: ≤0.25; Relative MIC value [32]: 8-16; Relative MIC value [33]: 64; Relative MIC value [34]: 64; Relative MIC value [35]: ≥512
